The source of these data is PMC12040169 (PLOS Biology, 2025).

A short description of this data set: in vitro. The note with it: human, hela cells, % viability.
As for `COc1nnc(-c2ccc(N3CCOCC3)c(NC(=O)COc3ccc(C)cc3)c2)c2ccccc12` [CBK266103], the viability at 28.5 h, 10 µM was found to be 97.6%.
Regarding `Cc1cccc(Nc2nc(N)nc(CSc3nccn3C)n2)c1` [CBK266105], the viability at 28.5 h, 10 µM worked out at 98.7%.
As for `CCc1ccc(Oc2c(CC(=O)O)oc3cc(O)c(CC)cc3c2=O)cc1` [CBK266108], the figure is 106%; as for `COc1ccccc1NC(=O)c1ccc(OC(C)C(=O)O)cc1` (stereo not drawn) [CBK266109], 106%.
The figure for `O=C(O)CCN/C(=N\S(=O)(=O)c1ccccc1)c1ccccc1` [CBK266111] is 92.2%; for `Cc1nn(Cc2ccccc2)c(C)c1NC(=O)CSc1nc2c(c(C(F)(F)F)n1)CCc1ccccc1-2` [CBK266112] it is 105%; for `O=C(Cn1nc(C(F)(F)F)c2c1CCC2)N1CCN(Cc2ccccc2)CC1` [CBK266113] it is 109%.
The figure for `Cc1ccc(N2CCN(CC(O)COc3ccc(C(=O)c4ccc(Cl)cc4)cc3)CC2)c(C)c1` (stereo not drawn) [CBK266117] is 110%.
Consider `O=C(CSc1nnc(Cc2ccccc2)o1)Nc1c(Cl)cc(Cl)cc1Cl` [CBK266119], for which the viability at 28.5 h, 10 µM is 99.8%.
The figure for `Nc1nnc(SCC(=O)c2ccc3ccccc3c2)s1` [CBK266120] is 97.7%; for `O=C(CSc1nc(-c2ccc(F)cc2)cc(C(F)(F)F)n1)NCCN1CCOCC1` [CBK266121] it is 99.6%; for `O=C(Nc1ccc(Cl)cc1)Nc1cc(S(=O)(=O)N2CCCC2)ccc1Cl` [CBK266122] it is 98%.
The figure for `COc1ccc(NS(=O)(=O)c2ccc(NC(=O)c3nc4nc(C)cc(C(F)F)n4n3)cc2)cc1` [CBK266123] is 91.4%; for `CN1CCN(c2ccc(NC(=O)c3ccc(OCc4ccccc4)cc3)cc2)CC1` [CBK266124] it is 99.6%.
As for `Cc1sc(NC(=S)NC(=O)COc2ccc(Br)cc2Cl)c(C(N)=O)c1C` [CBK266127], the figure is 111%; as for `COc1ccc(S(=O)(=O)Nc2ccc(C(=O)O)cc2)cc1[N+](=O)[O-]` [CBK266130], 103%; as for `CC(=O)Nc1ccc(S(=O)(=O)/N=C(\Nc2nc(C)cc(C)n2)Nc2ccccc2F)cc1` [CBK266134], 106%.
With `CCn1c(SCC(=O)N2CCC(C(N)=O)(N3CCCCC3)CC2)nnc1-c1ccccc1` [CBK266135], the viability at 28.5 h, 10 µM came out at 95.2%.
As for `O=C(O)CNS(=O)(=O)c1cc(Cl)c(Cl)cc1Cl` [CBK266136], the figure is 96.6%.
Turning to `O=C(COc1ccc2oc3c(c2c1)CCCC3)Nc1cccc2cccnc12` [CBK266137], the viability at 28.5 h, 10 µM came to 101%.
The figure for `CN(C)CCNc1ccc(-c2nnc(O)c3ccccc23)cc1[N+](=O)[O-]` [CBK266143] is 111%.
With `CCCc1cc(O)nc(SCC(=O)Nc2cc3c(cc2C(C)=O)OCO3)n1` [CBK266144], the viability at 28.5 h, 10 µM is 92%.
The figure for `Cn1c(CNC(=O)c2ccc(Cl)cc2)nnc1SCC(=O)c1ccc(Br)cc1` [CBK266145] is 88.4%.
Turning to `CCNS(=O)(=O)c1ccc(NC(=O)c2nc3nc(C)cc(C(F)F)n3n2)cc1` [CBK266146], the viability at 28.5 h, 10 µM was determined as 104%.
The figure for `O=C(C1=C(O)C(=O)N(CCCN2CCOCC2)C1c1cccnc1)c1cc2ccccc2o1` (stereo not drawn) [CBK266147] is 104%; for `COc1ccc(-c2cc(C(F)(F)F)nc(SCC(=O)Nc3cccnc3)n2)cc1OC` [CBK266148] it is 103%; for `Cc1ccc(C)n1NC(=O)c1ccccc1[N+](=O)[O-]` [CBK266151] it is 104%.
As for `O=C(CSc1nnc(-c2cccnc2)n1-c1ccc(Br)cc1)Nc1ccc2c(c1)OCO2` [CBK266153], the figure is 93.8%; as for `O=C(Nc1ccc(I)cc1C(=O)Nc1cccnc1)c1ccccc1Cl` [CBK266154], 98.5%; as for `O=C(Nc1ccc(S(=O)(=O)N2CCCCCC2)cc1)c1nc2ncccn2n1` [CBK266155], 97.7%.
Consider `O=C(Nc1scc(-c2ccc(-c3ccccc3)cc2)c1C(=O)O)c1ccco1` [CBK266156], for which the viability at 28.5 h, 10 µM was 108%.
The figure for `O=C(Nc1ccc(I)cc1C(=O)NCCN1CCOCC1)c1ccc(Cl)cc1Cl` [CBK266157] is 100%.
In the case of `COc1ccc(S(=O)(=O)N(C)CC(=O)Nc2ccccc2C(F)(F)F)cc1OC` [CBK266159], the viability at 28.5 h, 10 µM came out at 106%.
As for `Cc1nn(Cc2ccc(Cl)cc2)c(C)c1NC(=O)CSc1nc(-c2ccc(F)cc2)cc(C(F)(F)F)n1` [CBK266160], the figure is 89.7%.
With `NS(=O)(=O)c1ccc(NC(=O)CN2CCC(Cc3ccccc3)CC2)cc1` [CBK266161], the viability at 28.5 h, 10 µM was found to be 98.6%.
As for `O=C(COc1ccc(Cl)cc1Cl)Nc1ccc(CN2CCCCC2)cc1` [CBK266164], the figure is 105%.
On to `N#C/C(=C\c1cccn1-c1ccc(S(N)(=O)=O)cc1)c1nc2ccccc2[nH]1` [CBK266167], for which the viability at 28.5 h, 10 µM amounted to 103%.
As for `O=C(C1=C(O)C(=O)N(CCCn2ccnc2)C1c1cccs1)c1ccc2c(c1)OCCO2` (stereo not drawn) [CBK266170], the figure is 92%.
As for `O=C(COc1ccccc1)Nc1ccccc1Sc1ncnc2sc3c(c12)CCCC3` [CBK266171], the figure is 98.4%; as for `Cc1cccc(-n2c(N)cc(=O)nc2SC(C)C(=O)Nc2ccc(S(N)(=O)=O)cc2)c1` (stereo not drawn) [CBK266173], 99.7%.
As for `O=C(CSc1nnc(-c2cccnc2)n1-c1ccc(Br)cc1)Nc1ccc(F)cc1` [CBK266174], the figure is 111%; as for `Nc1nc(SCCCC(=O)NC2CCCCC2)nc2sc3c(c12)CCCC3` [CBK266176], 99.7%; as for `Cc1oc2nc(SCC(=O)NCc3cccnc3)nc(N)c2c1C` [CBK266178], 106%.
For the molecule `Cc1cccc(NC(=O)CSc2nc(O)c3c(C)cc(C)nc3n2)c1` [CBK266179], the viability at 28.5 h, 10 µM amounted to 90.5%.
Regarding `NS(=O)(=O)c1ccc(NC(=O)CN2CCN(c3cccc(C(F)(F)F)c3)CC2)cc1` [CBK266180], the viability at 28.5 h, 10 µM is 105%.
As to `O=C(c1cccs1)N1CCN(S(=O)(=O)c2cccc([N+](=O)[O-])c2)CC1` [CBK266184], the viability at 28.5 h, 10 µM came out at 94.7%.
As for `COc1ccc(NC(=O)CSc2nnc(-c3ccncc3)n2-c2ccc(C)cc2)cc1Cl` [CBK266187], the figure is 98.3%.
As to `Cn1c(=O)c2[nH]c(NCCN3CCOCC3)nc2n(C)c1=O` [CBK266189], the viability at 28.5 h, 10 µM is 98.6%.
As for `COc1cc(C=O)ccc1OCC(=O)Nc1ccc(C)c(Cl)c1` [CBK266190], the figure is 111%.
As for `COc1ccc(-c2cc(C(F)(F)F)nc(SCC(=O)N3CCN(C)CC3)n2)cc1OC` [CBK266194], the figure is 96.1%.
In the case of `O=C(O)c1ccc(NC(CC(=O)c2ccccc2)c2ccc(Br)cc2)cc1` (stereo not drawn) [CBK266195C], the viability at 28.5 h, 10 µM was 109%.
The figure for `Cc1cc(C(C)(C)C)cc(S(=O)(=O)Nc2ccc(O)c(C(=O)O)c2)c1C` [CBK266196] is 101%.
The figure for `Cc1ccc(C2C=C(c3ccccc3)Nc3nc(N4C(=O)CCC4=O)nn32)cc1` (stereo not drawn) [CBK266197] is 98.6%.
As for `Cc1cc(C(F)F)n2nc(C(=O)Nc3cccc(S(=O)(=O)N4CCOCC4)c3)nc2n1` [CBK266198], the viability at 28.5 h, 10 µM was 101%.

In general, viability refers to a read-out of living cells in per cent, often relative to untreated cells.
